We go through 120 sequences from the supplement of paper PMC4976141.

This series has as its system PC9. The series is described as follows: cell count fold change with erlotinib, miRNA mimic vs non-targeting control (log2 ratio); higher = more drug-tolerant survivors than NTC. As to conditions: erlotinib 1 µM; 72 h drug + 72 h drug-free recovery; perturbation: miRNA mimic.
On to GUGAGGACUCGGGAGGUGG, for which the “cell count fold change with erlotinib” value is -3.05. The value for UAACUGGUUGAACAACUGAACC was -0.919; that for UUCAACGGGUAUUUAUUGAGCA was -3.32; that for GUGAAUUACCGAAGGGCCAUAA was -2.07.

Regarding UUGCAUAUGUAGGAUGUCCCAU, the “cell count fold change with erlotinib” value was -1.06. With AGGACCUGCGGGACAAGAUUCUU the figure was 0.369. The value for AUCAUAGAGGAAAAUCCACGU was -3.73. The value for AAGGAGCUUACAAUCUAGCUGGG was -0.343; that for CGUGUAUUUGACAAGCUGAGUU was -5.21; that for UGGUUUACCGUCCCACAUACAU was 0.24.

On to AACAUUCAACGCUGUCGGUGAGU, for which the “cell count fold change with erlotinib” value is -3.99.

Take AGGGGUGCUAUCUGUGAUUGA: the “cell count fold change with erlotinib” value turned out to be 0.941. For the sequence AGACUUCCCAUUUGAAGGUGGC, the “cell count fold change with erlotinib” value is -0.166.

With CCCCCACAACCGCGCUUGACUAGCU, the “cell count fold change with erlotinib” value is -0.523. The value for UAGCAGCGGGAACAGUUCUGCAG was -3.68; that for AGCCUGGAAGCUGGAGCCUGCAGU was -0.167; that for ACUUGUAUGCUAGCUCAGGUAG was -0.236.

In the case of AUGCUGACAUAUUUACUAGAGG, the “cell count fold change with erlotinib” value is -1.82. With AAAGUGCUUCCUUUUAGAGGG the figure was -0.225. With AGGGCUUAGCUGCUUGUGAGCA the figure was -3.74; with UAAGUGCUUCCAUGUUUGAGUGU, -0.491.

With UUCUCAAGGAGGUGUCGUUUAU, the “cell count fold change with erlotinib” value is -1.83. With UAGGCAGUGUCAUUAGCUGAUUG the figure was -1.83; with AGCAGCAUUGUACAGGGCUAUCA, -0.458. Regarding UCCCUGUUCGGGCGCCA, the “cell count fold change with erlotinib” value was -3.09.

On to AAACCUGUGUUGUUCAAGAGUC, for which the “cell count fold change with erlotinib” value was -0.0774.

UUGGGAUCAUUUUGCAUCCAUA: the “cell count fold change with erlotinib” value worked out at 0.519. The value for CAACGGAAUCCCAAAAGCAGCUG was -1.27; that for UCCCUGUCCUCCAGGAGCUCACG was -1.84.

Regarding CCAGUAUUAACUGUGCUGCUGA, the “cell count fold change with erlotinib” value is -1.92. With CCUCUGAAAUUCAGUUCUUCAG the figure was -0.736; with AAGCCCUUACCCCAAAAAGCAU, -1.75; with GGGCGACAAAGCAAGACUCUUUCUU, -2.38. The value for CCUCUGGGCCCUUCCUCCAG was 0.0835; that for AAGCAUUCUUUCAUUGGUUGG was -1.49.

UGGAGGAGAAGGAAGGUGAUG: the “cell count fold change with erlotinib” value came out at 0.943. With GAAAGCGCUUCUCUUUAGAGG the figure was -0.525; with UGGUUGUAGUCCGUGCGAGAAUA, 1.81; with CUCUUGAGGGAAGCACUUUCUGU, -1.33. The value for GGUGCAGUGCUGCAUCUCUGGU was -1.52. With UAGCUUAUCAGACUGAUGUUGA the figure was -2.58; with UAGUACCAGUACCUUGUGUUCA, -4.15; with UGUAAACAUCCUACACUCUCAGC, 0.35. Turning to UAAGGCACGCGGUGAAUGCC, the “cell count fold change with erlotinib” value is 0.453. With UGUUUUGAUAACAGUAAUGU the figure was -1.27; with UCGAGGAGCUCACAGUCUAGU, -0.737. With AAAGUGCUGCGACAUUUGAGCGU the figure was 0.0776.

As to UGCGGGGCUAGGGCUAACAGCA, the “cell count fold change with erlotinib” value came to 0.647. With UGACAACUAUGGAUGAGCUCU the figure was -1.88; with UUGUGUCAAUAUGCGAUGAUGU, -3.39; with CAGUGCAAUGUUAAAAGGGCAU, -3.02. With UUACAGUUGUUCAACCAGUUACU, the “cell count fold change with erlotinib” value is -2.68. With ACGGGUUAGGCUCUUGGGAGCU the figure was -2.04; with ACUGCAUUAUGAGCACUUAAAG, -0.728. With UAGAUAAAAUAUUGGUACCUG the figure was -1.41. The value for AGGGGUGGUGUUGGGACAGCUCCGU was -0.171; that for UUUUGCACCUUUUGGAGUGAA was -3.02; that for CAGUGCAAUAGUAUUGUCAAAGC was -2.72.

Consider UCACAAUGCUGACACUCAAACUGCUGAC, for which the “cell count fold change with erlotinib” value is -1.47. AAAAGCUGGGUUGAGAGGGCGA: the “cell count fold change with erlotinib” value was -2.14.

Turning to UCCAGCAUCAGUGAUUUUGUUG, the “cell count fold change with erlotinib” value was -2.81.

Regarding CAAGCUCGUGUCUGUGGGUCCG, the “cell count fold change with erlotinib” value was -1.13. For AACCCGUAGAUCCGAUCUUGUG, the “cell count fold change with erlotinib” value was -0.33. As to GAAAGCGCUUCCCUUUGCUGGA, the “cell count fold change with erlotinib” value was -0.859. The value for AAUCAUACAGGGACAUCCAGUU was -1.33; that for CAAAGAGGAAGGUCCCAUUAC was -0.517; that for CAGUGCAAUGAUGAAAGGGCAU was -2.17. The value for AGGCGGAGACUUGGGCAAUUG was -3.29; that for AUGGUUCCGUCAAGCACCAUGG was -2.16. As to UGGAGAGAAAGGCAGUUCCUGA, the “cell count fold change with erlotinib” value was -1.98. With CAGUUAUCACAGUGCUGAUGCU the figure was -1.92; with AGUUUUGCAGGUUUGCAUCCAGC, -0.535. Consider AGGUUACCCGAGCAACUUUGCAU, for which the “cell count fold change with erlotinib” value was -0.13.

As to UACCCAGAGCAUGCAGUGUGAA, the “cell count fold change with erlotinib” value is -2.53.

As to UCACUCCUCUCCUCCCGUCUU, the “cell count fold change with erlotinib” value was -4.11. As for UAGGACACAUGGUCUACUUCU, the “cell count fold change with erlotinib” value was -1.02.

AAAAACUGUAAUUACUUUU: the “cell count fold change with erlotinib” value worked out at 0.031. With CAAAGCGCUCCCCUUUAGAGGU the figure was -0.185; with CUGAAGUGAUGUGUAACUGAUCAG, -3.44; with ACAAAGUGCUUCCCUUUAGAGUGU, -0.659. Regarding AAGAUGUGGAAAAAUUGGAAUC, the “cell count fold change with erlotinib” value is -0.304. For the sequence UGAGCGCCUCGACGACAGAGCCG, the “cell count fold change with erlotinib” value is -1.23.

Consider CAUCUUACCGGACAGUGCUGGA, for which the “cell count fold change with erlotinib” value was -0.519. With CUGGAGAUAUGGAAGAGCUGUGU the figure was -0.316. With GUGAGGGCAUGCAGGCCUGGAUGGGG the figure was -0.605. With UUGUACAUGGUAGGCUUUCAUU the figure was -3.02; with AGUUUUGCAUAGUUGCACUACA, -2.57. Regarding AAAGUAGCUGUACCAUUUGC, the “cell count fold change with erlotinib” value is -2.51. The value for GUGAGUCUCUAAGAAAAGAGGA was -1.43; that for GAAAGUGCUUCCUUUUAGAGGC was -0.077; that for UUUCCAUAGGUGAUGAGUCAC was -0.48. On to UAGGUUAUCCGUGUUGCCUUCG, for which the “cell count fold change with erlotinib” value was -2.37. Consider UCUCUGGGCCUGUGUCUUAGGC, for which the “cell count fold change with erlotinib” value stood at 0.808. Regarding UGUGCGCAGGGAGACCUCUCCC, the “cell count fold change with erlotinib” value was -1.77. With CUCAGUAGCCAGUGUAGAUCCU the figure was -4.13; with CUCUAGAGGGAAGCACUUUCUC, -0.525; with UAAGGUGCAUCUAGUGCAGUUAG, -4.47. The value for AGGCAGCGGGGUGUAGUGGAUA was 1.05; that for UAAAGAGCCCUGUGGAGACA was -1.03. With UUCUCGAGGAAAGAAGCACUUUC the figure was -1.6; with AAGUGAUCUAAAGGCCUACAU, -3.48. Turning to GAUUGCUCUGCGUGCGGAAUCGAC, the “cell count fold change with erlotinib” value is -1.68. The value for AUCACAUUGCCAGGGAUUUCC was -1.61; that for GCAUGGGUGGUUCAGUGG was 0.259; that for GAUUAGGGUGCUUAGCUGUUAA was -2.53.

For the sequence GUUGGAGGAUGAAAGUACGGAGUGAU, the “cell count fold change with erlotinib” value was -2.24.

Consider UAAGUGCUUCCAUGUUUUGGUGA, for which the “cell count fold change with erlotinib” value is -1.35. The value for AUUCUGCAUUUUUAGCAAGUUC was -0.25. For UUGUGCUUGAUCUAACCAUGU, the “cell count fold change with erlotinib” value was -1.88. With UAAGUGCUUCCAUGUUUCAGUGG the figure was -0.141; with UCGGAUCCGUCUGAGCUUGGCU, 0.402. With ACCCUAUCAAUAUUGUCUCUGC the figure was -3.19; with CAGCAGCAAUUCAUGUUUUGAA, -3.25; with UGAGCCCCUGUGCCGCCCCCAG, -1.44. The value for UGCUUCCUUUCAGAGGGU was -3.13; that for UGGAUUUCUUUGUGAAUCACCA was -4.07. As to GUGUGCGGAAAUGCUUCUGCUA, the “cell count fold change with erlotinib” value was -2.43.

Turning to UUAUGGUUUGCCUGGGACUGAG, the “cell count fold change with erlotinib” value was -0.886. The value for AGGUUGGGAUCGGUUGCAAUGCU was -0.41; that for CACACACUGCAAUUACUUUUGC was -3.13.
